Source: US11384115B2, “Nuclear sulfated oxysterol, potent regulator of lipid homeostasis, for therapy of hypercholesterolemia, hypertriglycerides, fatty liver diseases, and atherosclerosis” (Virginia Commonwealth University, priority 2004, dated 2022)

Tests used:
[1] = system: HepG2 cells; assay: Cholesterol levels in microsomal fractions by HPLC after cholesterol oxidase; type: cell-based, human; settings: 0-25 μM
[2] = system: HMG CoA reductase mRNA; assay: HMG CoA reductase mRNA by real-time RT-PCR in HepG2 cells; type: cell-based, human; settings: for inhibition of HMG CoA reductase mRNA: HepG2, lipid-depleted serum media
Experimental: HepG2 cells were grown in MEM containing non-essential amino acids, 0.03M NaHCO3, 10% FBS, 1 mM L-glutamine, 1 mM sodium pyruvate and 1% Pen/Strep and incubated at 37° C. in 5% CO2. When cells reached at ˜90% confluency, the oxysterols in DMSO or in ethanol (final concentration, 0.1%) and/or [1-^14C]acetate for cholesterol synthesis was added or otherwise as indicated. Microsomal and cytosol fractions were isolated from broken cells as described previously (10).
(§1) Total RNA was isolated from HepG2 cells using SV Total RNA Isolation Kit (Promega). Two μg of total RNA was used for first-strand cDNA synthesis as recommended by manufacture (Invitrogen). Real-time PCR was performed using SYBR Green on ABI 7500 Fast Real-Time PCR System (Applied Biosystems). The final reaction mixture contained 5 ng of cDNA, 100 nM of each primer, 10 μl of 2×SYBR® Green PCR Master Mix (Applied Biosystems), and RNase-free water to complete the reaction mixture volume to 20 μl. All reactions were performed in triplicate. The PCR was carried out for 40 cycles at 95° C. for 15 s and 60° C. for 1 min. The fluorescence was read during the reaction, allowing a continuous monitoring of the amount of PCR product. The data was normalized to internal control-β-actin or GAPDH mRNA. The sequences of primers for HMG CoA reductase used in real-time PCR are […] (SEQ ID NO: 1) (Forward) and […] (SEQ ID NO: 2) (Reverse).

[3] = system: IL-1β and TNFα release; assay: ELISA analysis of LPS-induced cytokine releases from macrophages; type: cell-based, human; settings: LPS 1 μg/ml, 24 hrs; for LPS-induced IL-1β release: concentration-dependent
Experimental: A total of 1×10^6 macrophages were treated with LPS (1 μg/ml) and/or different concentrations of 25HC or 25HC3S for 24 hrs. Supernatants were harvested and cytokines IL-1ß and TNF-α concentration were measured by enzyme-linked immunosorbent assay (ELISA) according to manufacturer's instruction (SuperArray Bioscience, Frederick Md.). SiRNA-mediated macrophage RNA interference

[4] = system: SREBP-1; assay: Western blot of SREBP-1 activation in HepG2 cells; type: cell-based, human; settings: for mature forms of SREBP-1: HepG2, dose dependent
Experimental: FIGS. 18A-18D. Western blot analysis of SREBPs activation following 25HC3S or 25HC treatment in HepG2 cells. […] SREBP-1 and SREBP-2 protein levels in the cells were determined by Western blot analysis. The extracted protein (100 μg) was loaded onto each lane for each condition as indicated. The data represent a typical result from one of three independent experiments. The trends of the protein levels are highly reproducible.
Microsomal proteins (80 μg) were separated on a 7.5% SDS-polyacrylamide denaturing gel according to the method of Laemmli (14). Following SDS-PAGE (Hoefer Vertical Slab Gel Unit; Heofer, San Francisco, Calif.), proteins were electrophoretically transferred overnight (4° C.) to Immobilon-P membranes using a Hoefer Trans Blot Electrophoretic Transfer cell. The membranes were then blocked for 90 minutes (25° C.) in blocking buffer (PBS, pH 7.4, 0.1% Tween, 5% non-fat dry milk). Proteins were then incubated for 90 minutes (25° C.) or overnight (4° C.) with a rabbit polyclonal IgG (1:2500-1:20,000) against human SREBP-1, SREBP-2, or HMG CoA reductase. After washing, a secondary antibody (goat anti-rabbit IgG-Horse-radish peroxidase conjugate, 1:2500) was added to the blocking solution (25° C., 90 minutes). Protein bands were detected using the Amersham ECL plus Kit.

[5] = system: HMG CoA reductase mRNA; assay: HMG CoA reductase mRNA by real-time RT-PCR in primary human hepatocytes; type: cell-based; set-up: effect on levels of HMG CoA reductase mRNA: dose or concentration left out as unconfirmed; settings: for inhibition of HMG CoA reductase mRNA: PHH cultured in serum-free media
Experimental: Primary human hepatocytes were purchased from an NIH-approved facility (Liver Tissue Procurement Distribution System, Univ. of Minnesota). Cells were obtained from a random sampling of males and females 18-69 yr of age. Experiments were performed as cells became available to corroborate findings in experiments conducted in HepG2 cells as previous described (13).
as §1

[6] = system: PPARγ mRNA; assay: PPARγ mRNA by real time RT-PCR in macrophages; type: cell-based, human
Experimental: Total RNA was isolated from THP-1 derived macrophages following treatments for 6 hrs otherwise as indicated using SV Total RNA Isolation Kit (Promega, Wisconsin, Wis.), which includes DNase treatment. Two microgram of total RNA was used for first-strand cDNA synthesis as recommended by manufacturer (Invitrogen, Carlsbad, Calif.). Real-time RT-PCR was performed using SYBR Green as indicator on ABI 7500 Fast Real-Time PCR System (Applied Biosystems, Foster City, Calif.). The final reaction mixture contained 10 ng of cDNA, 100 nM of each primer, 10 μl of 2×SYBR® Green PCR Master Mix (Applied Biosystems, Foster City, Calif.), and RNase-free water to complete the reaction mixture volume to 20 μl. All reactions were performed in triplicate. PCR was carried out for 40 cycles of 95° C. for 15 s and 60° C. for 1 min. The fluorescence was read during the reaction, allowing a continuous monitoring of the amount of PCR product. The data was normalized to internal control GAPDH.

[7] = system: LXR; settings: macrophages, cited from earlier work
[8] = system: IκB; assay: IκB mRNA (RT-PCR) and protein (Western blot) in THP-1 macrophages; type: cell-based, human; settings: for IκB protein levels: Western blot, 24 hrs; for IκB mRNA level: real time RT-PCR, 6 hrs; for increase of IκB mRNA levels: macrophages
Experimental: FIG. 25A-C. […] The Western blot data represents one of three experiments.
Fifty μg of total cell lysates or nuclear protein extracts, otherwise as indicated, were separated on 10% SDS-PAGE gels and transferred onto a polyvinylidene difluoride membrane as described previously [31]. Membranes were blocked in TBS containing 5% of nonfat dried milk for 1 hr. The specific proteins were determined by incubation with specific antibodies against human PPAR or IκB overnight at 4° C. with shaking. After washing, the membrane was incubated in a 1:3,000 dilution of a secondary antibody (goat anti-rabbit or anti-mouse IgG-HP conjugate; Bio-Rad, Hercules, Calif.) at room temperature for 1 hr in the washing buffer (Tris buffered solution containing 0.5% Tween 20). The protein bands were visualized using Western Lightening Chemiluminescence Reagent (Perkin-Elmer, Waltham, Mass.). The expression levels were normalized to Lamin.

[9] = system: SREBP-2; assay: Western blot of SREBP-2 activation in HepG2 cells; type: cell-based, human
Experimental: Western blot analysis of SREBPs activation following 25HC3S or 25HC treatment in HepG2 cells. Total proteins were extracted from HepG2 cells treated with 25HC in ethanol (0.1%) (FIGS. 18A and 18C) or 25HC3S in DMSO (0.1%) (FIGS. 18B and 18D), cultured in the media in absence (FIGS. 18A and 18B) or presence (FIGS. 18C and 18D) of mevinolin (50 mM) and mevalonate (0.5 mM). SREBP-1 and SREBP-2 protein levels in the cells were determined by Western blot analysis. The extracted protein (100 μg) was loaded onto each lane for each condition as indicated. The data represent a typical result from one of three independent experiments.
Microsomal proteins (80 μg) were separated on a 7.5% SDS-polyacrylamide denaturing gel according to the method of Laemmli (14). Following SDS-PAGE (Hoefer Vertical Slab Gel Unit; Heofer, San Francisco, Calif.), proteins were electrophoretically transferred overnight (4° C.) to Immobilon-P membranes using a Hoefer Trans Blot Electrophoretic Transfer cell. The membranes were then blocked for 90 minutes (25° C.) in blocking buffer (PBS, pH 7.4, 0.1% Tween, 5% non-fat dry milk). Proteins were then incubated for 90 minutes (25° C.) or overnight (4° C.) with a rabbit polyclonal IgG (1:2500-1:20,000) against human SREBP-1, SREBP-2, or HMG CoA reductase. […] Protein bands were detected using the Amersham ECL plus Kit.

[10] = HepG2, in the presence of serum

For `C[C@H](CCCC(C)(C)O)[C@H]1CC[C@H]2[C@@H]3CC=C4C[C@@H](O)CC[C@]4(C)[C@H]3CC[C@]12C` [25HC, 25-hydroxycholesterol, reference compound], the “cholesterol levels in the microsomal fraction” value [1] was “significantly decreased”, the “inhibition of the mRNA of HMG CoA reductase and SREBP1” value ([2]; HepG2, at 3 μM) was 85% and the “inhibition of HMG CoA reductase” value [2, 10] was 70%. For the same compound, the “inhibition of HMG CoA reductase mRNA” value [2] was “more potent inhibition than 25HC3S”, the “inhibition of HMG CoA reductase” value ([2]; HepG2, lipids depleted serum) was 90% and the “LPS-induced IL-1β release” value [3] was “increased”. The “mature forms of SREBP-1” value [4] was “decreases”, the “inhibition of HMG CoA reductase mRNA” value [5] was 15% and the “effect on levels of HMG CoA reductase mRNA” value ([5]; PHH, serum-free media) was ~15%. The “PPARγ mRNA levels” value [6] was “neither 25HC nor 25HC3S was able to change”, the “increase of LXR targeting gene expressions, ABCA1/G1 and SREBP-1 mRNAs” value ([7]; in 6 hrs) was 5-50 fold and the IκB protein levels [8] was “decreased”. The “IκB mRNA level” value [8] was “no significantly changed” and the “mature form of SREBP-2” value [9] was “only slightly decreased”.
In the case of `C[C@H](CCCC(C)(C)O)[C@H]1CC[C@H]2[C@@H]3CC=C4C[C@@H](OS(=O)(=O)O)CC[C@]4(C)[C@H]3CC[C@]12C` [25HC3S, 5-cholesten-3β, 25-diol 3-sulphate], the “cholesterol levels in the microsomal fraction” value [1] is reported as “significantly decreased”, the “cholesterol levels in the microsomal fraction” value ([1]; listed as nuclear oxysterol) is reported as “significant decrease” and the “HMG CoA reductase mRNA” value ([2]; HepG2, 10% FBS media) is reported as “concentration dependent decreases”. For the same compound, the “inhibition of the mRNA of HMG CoA reductase and SREBP1” value ([2]; HepG2, at 12 μM) was 85%, the “inhibition of HMG CoA reductase” value [2, 10] was 70% and the “inhibition of HMG CoA reductase mRNA” value [2] was “still strongly inhibits”. For the same compound, the “LPS-induced release of TNFα” value [3] was “represses”, the “LPS-induced IL-1β release” value [3] was “significantly decreased” and the “mature forms of SREBP-1” value [4] was “decreases”. The “inhibition of SREBP-1 activation” value ([4]; HepG2, media containing 50 μM of mevinolin and 0.5 μM of mevalonate) was “more potent inhibition on SREBP-1 activation than 25HC”, the “inhibition of HMG CoA reductase mRNA” value [5] was 75% and the “PPARγ mRNA levels” value [6] was “neither 25HC nor 25HC3S was able to change”. For the same compound, the “LXR activities and its targeting gene expressions” value [7] was “decreases”, the IκB protein levels [8] was “increased” and the “increase of IκB mRNA levels” value ([8]; 12 μM) was 2.5 folds. For the same compound, the “increase of IκB mRNA levels” value ([8]; in the presence of TNFα) was 6 folds, the “IκB mRNA level” value [8] was “significantly increased” and the “mature form of SREBP-2” value [9] was “only slightly decreased”.
